Data: the supplement of paper PMC8149375

Legend:
Settings in all cases: treatment: drug alone; 5 days
TK-10 [1] = assay: minimum viability across doses, drug alone, relative to DMSO (fraction); higher = less growth inhibition
Procedure: (§1)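 Primary HTS: 8 RCC cell lines treated with 8 doses (up to 10 uM) of each library drug alone for 5 days; viability read by CellTiter-Glo and normalised to DMSO. GI50 was fitted with XLfit (4-parameter), AUC is the area under the dose-response curve, and minimum viability is the lowest fraction of DMSO viability across doses.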

SN12C [2] = assay: as above
Procedure: as §1

769-P [3] = assay: as above
Procedure: as §1

UO-31 [4] = assay: as above
Procedure: as §1

A498 [5] = assay: as above
Procedure: as §1

786-O [6] = assay: as above
Procedure: as §1

ACHN [7] = assay: as above
Procedure: as §1

CAKI-1 [8] = assay: as above
Procedure: as §1

TK-10 [9] = assay: AUC of dose-response viability curve, drug alone (arbitrary (AUC of normalised viability)); higher = less growth inhibition
Procedure: as §1

SN12C [10] = assay: as above
Procedure: as §1

769-P [11] = assay: as above
Procedure: as §1

UO-31 [12] = assay: as above
Procedure: as §1

A498 [13] = assay: as above
Procedure: as §1

786-O [14] = assay: as above
Procedure: as §1

ACHN [15] = assay: as above
Procedure: as §1

CAKI-1 [16] = assay: as above
Procedure: as §1

TK-10 [17] = assay: GI50, drug alone; higher = less potent
Procedure: as §1

SN12C [18] = assay: GI50, drug alone; higher = less potent
Procedure: as §1

769-P [19] = assay: GI50, drug alone; higher = less potent
Procedure: as §1

UO-31 [20] = assay: GI50, drug alone; higher = less potent
Procedure: as §1

A498 [21] = assay: GI50, drug alone; higher = less potent
Procedure: as §1

786-O [22] = assay: GI50, drug alone; higher = less potent
Procedure: as §1

ACHN [23] = assay: GI50, drug alone; higher = less potent
Procedure: as §1

CAKI-1 [24] = assay: GI50, drug alone; higher = less potent
Procedure: as §1

Row | SMILES | minimum viability across doses (TK-10 [1]) | minimum viability across doses (SN12C [2]) | minimum viability across doses (769-P [3]) | minimum viability across doses (UO-31 [4]) | minimum viability across doses (A498 [5]) | minimum viability across doses (786-O [6]) | minimum viability across doses (ACHN [7]) | minimum viability across doses (CAKI-1 [8]) | AUC of dose-response viability curve (TK-10 [9]) | AUC of dose-response viability curve (SN12C [10]) | AUC of dose-response viability curve (769-P [11]) | AUC of dose-response viability curve (UO-31 [12]) | AUC of dose-response viability curve (A498 [13]) | AUC of dose-response viability curve (786-O [14]) | AUC of dose-response viability curve (ACHN [15]) | AUC of dose-response viability curve (CAKI-1 [16]) | GI50, drug alone (TK-10 [17]) | GI50, drug alone (SN12C [18]) | GI50, drug alone (769-P [19]) | GI50, drug alone (UO-31 [20]) | GI50, drug alone (A498 [21]) | GI50, drug alone (786-O [22]) | GI50, drug alone (ACHN [23]) | GI50, drug alone (CAKI-1 [24])
1 | CNC(=O)c1nn(C)c2c1C(C)(C)Cc1cnc(Nc3ccc(N4CCN(C)CC4)cc3)nc1-2 | 0.177 | 0.0145 | 0.0249 | 0.0155 | 0.0273 | 0.00535 | 0.0129 | 0.0591 | 2.06 | 2.54 | 2.48 | 2.64 | 3.76 | 2.22 | 1.53 | 1.81 | 0.311 µM | 0.957 µM | 1 µM | 1.33 µM | 4.8 µM | 366 nM | 95.3 nM | 174 nM
2 | COc1cc(Nc2ncc(F)c(Nc3ccc4c(n3)N(COP(=O)([O-])[O-])C(=O)C(C)(C)O4)n2)cc(OC)c1OC.[Na+].[Na+] | 0.418 | 0.303 | 0.119 | 0.0974 | 0.898 | 0.125 | 0.0693 | 0.035 | 2.53 | 2.73 | 3.1 | 4 | 3.85 | 2.1 | 2.42 | 2.49 | 5.18 µM | 3.32 µM | 5.08 µM | 9.63 µM | > 10 µM | 1240 nM | 973 nM | 1020 nM
3 | COc1cc2ncnc(Nc3ccc(F)c(Cl)c3)c2cc1OCCCN1CCOCC1 [Gefitinib (Iressa)] | 0.269 | 0.693 | 0.536 | 0.872 | 1.05 | 0.781 | 0.179 | 0.281 | 2.43 | 3.15 | 2.66 | 4.31 | 4.53 | 3.22 | 2.4 | 3.04 | 1.52 µM | > 10 µM | > 10 µM | > 10 µM | > 10 µM | > 10000 nM | 1240 nM | 5880 nM
4 | CC1CCN(C(=O)CC#N)C[C@@H]1N(C)c1ncnc2[nH]ccc12.O=C(O)CC(O)(CC(=O)O)C(=O)O (stereo in doubt) | 0.797 | 0.854 | 0.938 | 0.897 | 0.817 | 0.614 | 0.771 | 0.918 | 3.16 | 3.23 | 3.66 | 4.05 | 3.54 | 2.72 | 3.18 | 3.73 | > 10 µM | > 10 µM | > 10 µM | > 10 µM | > 10 µM | > 10000 nM | > 10000 nM | > 10000 nM
5 | COc1ccc2c(OCc3nnc4ccc(-c5ccccc5)nn34)ccnc2c1 [AMG-208] | 0.804 | 0.912 | 0.879 | 1.25 | 1.15 | 0.869 | 0.888 | 0.678 | 3.11 | 3.4 | 3.41 | 4.94 | 4.38 | 3.53 | 3.47 | 2.66 | > 10 µM | > 10 µM | > 10 µM | > 10 µM | > 10 µM | > 10000 nM | > 10000 nM | > 10000 nM
6 | CO[C@H]1C[C@@H]2CC[C@@H](C)[C@@](O)(O2)C(=O)C(=O)N2CCCC[C@H]2C(=O)O[C@H]([C@H](C)C[C@@H]2CC[C@@H](O)[C@H](OC)C2)CC(=O)[C@H](C)/C=C(\C)[C@@H](O)[C@@H](OC)C(=O)[C@H](C)C[C@H](C)/C=C/C=C/C=C/1C [Rapamycin (Sirolimus)] | 0.491 | 0.557 | 0.504 | 0.0503 | 0.547 | 0.211 | 0.38 | 0.377 | 2.04 | 2.11 | 2.08 | 0.524 | 2.44 | 0.986 | 1.77 | 1.91 | > 10 µM | 1.76 µM | > 10 µM | < 0.003 µM | > 10 µM | < 3 nM | 171 nM | 358 nM
7 | Cc1cc(C(C)Nc2ccccc2)c2nc(N3CCOCC3)cc(=O)n2c1 (stereo unspecified) [TGX-221] | 0.707 | 0.847 | 0.749 | 1.15 | 1.04 | 0.622 | 0.736 | 0.49 | 3.06 | 3.34 | 3.18 | 5.04 | 4.23 | 2.6 | 3.15 | 2.84 | > 10 µM | > 10 µM | > 10 µM | > 10 µM | > 10 µM | > 10000 nM | > 10000 nM | 8600 nM
8 | CCCCOc1c(C(=O)c2c(F)cc(C)cc2F)cnc2[nH]ncc12 | 0.47 | 0.564 | 0.562 | 0.00742 | 0.575 | 0.0155 | 0.198 | 0.745 | 2.35 | 2.98 | 2.95 | 3.45 | 3.32 | 1.46 | 1.93 | 3.12 | 2.45 µM | > 10 µM | > 10 µM | 0.984 µM | > 10 µM | 96.9 nM | 267 nM | > 10000 nM
9 | COC[C@H]1OC(=O)c2coc3c2[C@@]1(C)C1=C(C3=O)[C@@H]2CCC(=O)[C@@]2(C)C[C@@H]1OC(C)=O [Wortmannin] | 0.725 | 0.387 | 0.55 | 0.643 | 0.421 | 0.00957 | 0.426 | 0.301 | 3.1 | 2.78 | 3.15 | 2.58 | 3.03 | 1.99 | 2.78 | 2.45 | > 10 µM | 0.0835 µM | > 10 µM | > 10 µM | 0.0833 µM | 49.3 nM | 98.1 nM | 2420 nM
